Source: PubChem BioAssay AID743368

Each molecule was assayed against Acetylcholine receptor subunit alpha (Mus musculus) (UniProt P04756) (assay: muscle nAChR inhibitors, cell-based, Mus musculus, Xenopus oocytes (AID 743368)). Settings: two-electrode voltage clamp, ACh-evoked current.
Sequence of Acetylcholine receptor subunit alpha (Mus musculus) (P04756 whole entry, looked up): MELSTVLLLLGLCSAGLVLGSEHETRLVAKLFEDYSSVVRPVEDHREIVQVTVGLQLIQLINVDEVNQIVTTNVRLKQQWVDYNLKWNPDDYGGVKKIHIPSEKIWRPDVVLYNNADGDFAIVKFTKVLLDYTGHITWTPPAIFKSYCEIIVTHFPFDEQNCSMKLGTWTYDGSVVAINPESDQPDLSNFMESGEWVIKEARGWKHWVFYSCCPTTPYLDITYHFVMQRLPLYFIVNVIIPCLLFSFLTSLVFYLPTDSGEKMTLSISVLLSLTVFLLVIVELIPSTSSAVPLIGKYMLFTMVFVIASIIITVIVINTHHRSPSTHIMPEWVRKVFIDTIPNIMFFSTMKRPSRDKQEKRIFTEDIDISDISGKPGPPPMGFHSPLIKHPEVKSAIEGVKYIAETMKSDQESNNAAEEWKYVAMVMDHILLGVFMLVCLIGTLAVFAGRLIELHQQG

Row | SMILES | IC50 [µM]
1 | CC/C=C/[C@@H]1CC[C@]2(C[C@H]3CC[C@H]4[C@@H](C(=O)OC(CC)CCCCCCCCCCCCC[C@@H]5O[C@](O)(CCN)[C@H](O)N(CCCN)C5=O)[C@@]5(CCC[C@H](C)O5)NC(=[N+]34)N2)O1 (stereo partly drawn) | 4.1
2 | COc1cc(CCN)c2c(c1OC)SSSSS2 | 8.7
3 | COn1c(Br)c2c3c(cccc31)[C@H]1C[C@@H](C)CN(C)[C@@H]1C2 | 3.7
